Measured values: article PMC7983942 (Clinical Pharmacology and Therapeutics, 2020)

Assay: Fasting plasma concentrations in healthy volunteers by SLCO1B1 genotype
Settings: for Plasma concentration, ratio to control (95% CI) / Plasma concentration, geometric mean (95% CI): fasting, adjusted for sex; for Mean fasting plasma concentration, lower in women than in men: women vs men, 356 healthy volunteers
[1] = SLCO1B1 c.521 C/C genotype (n = 13)
[2] = SLCO1B1 c.521 T/C genotype (n = 113)
[3] = SLCO1B1 c.521 T/T genotype (control; n = 230)

| Plasma concentration, ratio to control (95% CI) (C/C genotype (n = 13) vs T/T) | Plasma concentration, geometric mean (95% CI) [1] | Plasma concentration, geometric mean (95% CI) [2] | Plasma concentration, geometric mean (95% CI) [3] | Plasma concentration, ratio to control (95% CI) (T/C genotype (n = 113) vs T/T) | Mean fasting plasma concentration, lower in women than in men | SMILES |
| --- | --- | --- | --- | --- | --- | --- |
| 1.35 (0.865, 2.11) | 567 (367, 876) ng/mL | 378 (326, 438) ng/mL | 419 (378, 465) ng/mL | 0.900 (0.751, 1.08) | ~ 20% | C[C@H](CCC(=O)NCC(=O)O)[C@H]1CC[C@H]2[C@@H]3[C@H](O)C[C@@H]4C[C@H](O)CC[C@]4(C)[C@H]3CC[C@]12C [GCDCA, Glycochenodeoxycholate] |
| 1.16 (0.675, 1.98) | 141 (83.3, 237) ng/mL | 124 (104, 149) ng/mL | 122 (107, 138) ng/mL | 1.02 (0.822, 1.27) | ~ 20% | C[C@H](CCC(=O)NCC(=O)O)[C@H]1CC[C@H]2[C@@H]3CC[C@@H]4C[C@H](O)CC[C@]4(C)[C@H]3C[C@H](O)[C@]12C [GDCA, glycodeoxycholate] |
